Experiment [1] deals with T1, human VPAC2 (Homo sapiens, UniProt P41587).
T1 construct: expressed in transfected cells
T1 sequence (P41587 24-438): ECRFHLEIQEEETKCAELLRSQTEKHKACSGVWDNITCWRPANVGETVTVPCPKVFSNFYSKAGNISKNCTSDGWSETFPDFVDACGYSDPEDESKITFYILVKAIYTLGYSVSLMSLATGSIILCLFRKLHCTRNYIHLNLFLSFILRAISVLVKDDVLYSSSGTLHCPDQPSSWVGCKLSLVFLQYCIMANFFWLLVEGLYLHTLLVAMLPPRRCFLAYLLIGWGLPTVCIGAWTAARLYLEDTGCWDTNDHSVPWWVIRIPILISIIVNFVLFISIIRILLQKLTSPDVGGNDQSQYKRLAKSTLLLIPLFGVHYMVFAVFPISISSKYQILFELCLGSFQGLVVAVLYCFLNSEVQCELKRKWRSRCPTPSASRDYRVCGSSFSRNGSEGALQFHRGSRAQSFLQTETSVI
Nature of the experiment: Filter binding assay, membranes of stable VPAC2 cell line, 125I-labeled VIP tracer (Table 2). The procedure: (§1) For this assay, the solutions and equipment include:
(§2) Presoak solution: 0.5% Polyethyleneamine in Aqua dest.
(§3) Buffer for flushing filter plates: 25 mM HEPES pH 7.4
(§4) Blocking buffer: 25 mM HEPES pH 7.4; 0.2% protease free BSA
(§5) Assay buffer: 25 mM HEPES pH 7.4; 0.5% protease free BSA
(§6) Dilution and assay plate: PS-Microplate, U form
(§7) Filtration Plate Multiscreen FB Opaque Plate; […] Type B Glasfiber filter
(§8) In order to prepare the filter plates, aspirate the presoak solution by vacuum filtration. Flush the plates twice with 200 μL flush buffer. Add 200 μL blocking buffer to the filter plate. The filter plate is then incubated […] for 1 hour at room temperature.
(§9) Fill the assay plate with 25 μL assay buffer, 25 μL membranes (2.5 μg) suspended in assay buffer, 25 μL compound (agonist) in assay buffer, and 25 μL tracer (about 40000 cpm) in assay buffer. Incubate the filled plate for 1 hour with shaking.
(§10) Conduct the transfer from assay plate to filter plate. Aspirate the blocking buffer by vacuum filtration and wash two times with flush buffer. Transfer 90 μL from the assay plate to the filter plate. Aspirate the 90 μL transferred from assay plate and wash three times with 200 μL flush buffer. Remove the plastic support. Dry for 1 hour at 60° C. Add 30 μL Microscint. Perform the count.

Experiment [2] addresses T2, human VPAC1 (Homo sapiens, UniProt P32241).
T2 sequence (P32241 31-457): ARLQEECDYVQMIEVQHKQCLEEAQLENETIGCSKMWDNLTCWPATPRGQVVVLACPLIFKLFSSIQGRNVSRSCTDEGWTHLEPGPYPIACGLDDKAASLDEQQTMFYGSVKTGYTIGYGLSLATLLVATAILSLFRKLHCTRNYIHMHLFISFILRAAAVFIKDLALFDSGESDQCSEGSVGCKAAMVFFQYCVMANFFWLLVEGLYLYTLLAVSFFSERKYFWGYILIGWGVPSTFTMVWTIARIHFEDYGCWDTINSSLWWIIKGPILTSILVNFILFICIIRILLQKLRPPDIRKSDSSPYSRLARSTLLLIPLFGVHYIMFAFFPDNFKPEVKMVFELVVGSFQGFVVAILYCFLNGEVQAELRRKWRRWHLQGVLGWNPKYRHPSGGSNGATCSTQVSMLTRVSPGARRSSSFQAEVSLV
Description: Filter binding assay, membranes of cells transiently transfected with human VPAC1, 125I-labeled VIP tracer (Table 2). Also on record: expressed in transfected cells. The method, then:
as §1, §2, §3, §4, §5, §6, §7, §8, §9, §10

The target of experiment [3] is T3, human PAC1 (Homo sapiens, UniProt P41586).
T3 sequence (P41586 21-468): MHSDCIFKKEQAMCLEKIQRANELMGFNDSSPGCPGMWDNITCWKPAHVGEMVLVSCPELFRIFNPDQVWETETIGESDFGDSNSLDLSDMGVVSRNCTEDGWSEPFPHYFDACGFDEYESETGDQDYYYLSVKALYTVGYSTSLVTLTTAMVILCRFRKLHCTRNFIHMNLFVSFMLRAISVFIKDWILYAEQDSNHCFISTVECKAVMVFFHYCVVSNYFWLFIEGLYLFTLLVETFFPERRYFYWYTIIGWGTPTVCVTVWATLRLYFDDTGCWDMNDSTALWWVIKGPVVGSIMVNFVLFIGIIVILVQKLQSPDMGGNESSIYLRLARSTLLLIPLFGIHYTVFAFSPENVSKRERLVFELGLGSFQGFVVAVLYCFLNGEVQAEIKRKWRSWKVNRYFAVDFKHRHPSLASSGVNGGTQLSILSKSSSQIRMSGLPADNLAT
Description: Filter binding assay, membranes of cells transiently transfected with human PAC1, 125I-labeled PACAP-27 tracer (Table 2). Further details: expressed in transfected cells. The method, then: as §1, §2, §3, §4, §5, §6, §7, §8, §9, §10

Experiment [4] addresses T1, human VPAC2. Description: Alpha screen cAMP in vitro potency, human VPAC2 receptor. The class given is cell-based. The following applies: cAMP generation; single result from two analyses performed in a single run; read-out: Human VPAC2 Receptor: Alpha Screen EC50. The method, then:
Alpha screen: Cells are washed in the culture flask once with PBS. Then, the cells are rinsed with enzyme free dissociation buffer. The dissociated cells are removed. The cells are then spun down and washed in stimulation buffer. For each data point, 50,000 cells suspended in stimulation buffer are used. To this buffer, Alpha screen acceptor beads are added along with the stimuli. This mixture is incubated for 60 minutes. Lysis buffer and Alpha screen donor beads are added and are incubated for 60 to 120 minutes. The Alpha screen signal (indicative of intracellular cAMP levels) is read in a suitable instrument (e.g. AlphaQuest from Perkin-Elmer). Steps including Alpha screen donor and acceptor beads are performed in reduced light.

In experiment [5] the target is T4, human VPAC2 receptor (human, UniProt P41587 24-438).
T4 sequence (looked up): T1 sequence (P41587 24-438)
Nature of the experiment: cell-based or functional assay.

The mark [6] stands for this setting: read-out: Human VPAC2 Receptor Binding.
The mark [7] stands for this setting: read-out: Human VPAC1 Receptor Binding.
[8] abbreviates: read-out: Human PAC1 Receptor Binding.

Experimental findings from patent US20080026996A1, “Selective Vpac2 Receptor Reptide Agonists” (ELI LILLY AND COMPANY, priority 2004, published 2008) are described below.

Where two headings read alike, the source gives them in different places. Where no end group is shown, it is not given here. [ ]: non-standard residue; d: D form. The star is where a group is joined. Met(O) = CS(=O)CC[C@H](N)C(=O)O; Hexanoyl = CCCCCC(=O)*; Aib = CC(C)(N)C(=O)O Where only a bound is given, the exact number is not on record here.

Broadly, the EC50 is the concentration at which the effect is half-maximal.

For `CCCCCC(=O)N[C@@H](Cc1c[nH]cn1)C(=O)N[C@@H](CO)C(=O)N[C@@H](CC(=O)O)C(=O)N[C@@H](C)C(=O)N[C@H](C(=O)N[C@@H](Cc1ccccc1)C(=O)N[C@H](C(=O)N[C@@H](CC(=O)O)C(=O)N[C@@H](CC(N)=O)C(=O)N[C@@H](Cc1ccc(O)cc1)C(=O)N[C@H](C(=O)N[C@@H](CCCNC(=N)N)C(=O)N[C@@H](CC(C)C)C(=O)N[C@@H](CCCNC(=N)N)C(=O)N[C@@H](CCCCN)C(=O)N[C@@H](CCC(N)=O)C(=O)NC(C)(C)C(=O)N[C@@H](C)C(=O)N[C@@H](C)C(=O)N[C@@H](CCCCN)C(=O)N[C@@H](CCCCN)C(=O)N[C@@H](Cc1ccc(O)cc1)C(=O)N[C@@H](CC(C)C)C(=O)N[C@@H](CCC(N)=O)C(=O)N[C@@H](CO)C(=O)N[C@H](C(=O)N[C@@H](CCCCN)C(=O)N[C@@H](CC(N)=O)C(=O)N[C@@H](CCCCN)C(=O)N[C@@H](CCCNC(=N)N)C(=O)N[C@@H](Cc1ccc(O)cc1)C(=O)NCC(=O)NCC(=O)N1CCC[C@H]1C(=O)N[C@@H](CO)C(=O)N[C@@H](CO)C(=O)NCC(=O)N[C@@H](C)C(=O)N1CCC[C@H]1C(=O)N1CCC[C@H]1C(=O)N1CCC[C@H]1C(=O)N[C@@H](CO)C(=O)O)[C@@H](C)CC)[C@@H](C)O)[C@@H](C)O)C(C)C` [Agonist P189], the IC50 came out at 0.2 nM in experiment [1] (setting [6]), 6.87 nM in experiment [2] (setting [7]) and 303 nM in experiment [3] (setting [8]).

As to “H-HSDGVFTDNYTRLRKQVAAKKYLQSIKNKRYGGPSSGAPPPS [Agonist P102]”, the IC50 in experiment [1] is 15.4 nM; in experiment [2] it was 184 nM; in experiment [3], 55 nM.

For “H-H[dA]DAVFTDNYTRLRKQVAAKKYLQSIKNKRYGGPSSGAPPPS [Agonist P47]”, the IC50 in experiment [1] (setting [6]) is 0.84 nM; in experiment [2] (setting [7]), 124 nM.

With “HSDAVFTDNYTREKEKVAAKKYLQSIKNKRYGGPSSGAPPPS [Agonist P87]”, in experiment [4], the EC50 is more than 10000 nM. The IC50 in experiment [1] (setting [6]) came to 1110 nM; in experiment [2] (setting [7]), 636 nM.

For the molecule “HSDAVFTDNYTRLRKQVAAKKYLQSIKKGGPSSGAPPPS [Agonist P85]”, the IC50 in experiment [1] (setting [6]) was 1.7 nM; in experiment [2] (setting [7]), 226 nM.

As for “HSDAVFTDNYTRLRKQVAAKKYLQSIKRGGPSSGAPPPS [Agonist P82]”, the IC50 is 1.9 nM in experiment [1] (setting [6]) and 195 nM in experiment [2] (setting [7]).

For “HSDAVFTDNYTRLRRQVAAKKYLQSIKNKRYGGPSSGAPPPS [Agonist P72]”, the IC50 in experiment [1] (setting [6]) is 1.52 nM; in experiment [2] (setting [7]), 159 nM.

Consider “HSDAVFTDNYTRLRRQVAARRYLQSIRNRRYGGPSSGAPPPS [Agonist P71]”, for which the IC50 in experiment [1] (setting [6]) is 1.52 nM; in experiment [2] (setting [7]), 73.1 nM.

Take “Hexanoyl-HHSDAVFTDNYTRLLAKLALQKYLQSIKNKRYGGPSSGAPPPS [Agonist P191]”: the IC50 was 60.6 nM in experiment [1] (setting [6]), 1280 nM in experiment [2] (setting [7]) and more than 25000 nM in experiment [3] (setting [8]).

As for “Hexanoyl-HSDAVFTDNYTRLRKQVAAKKLLQSIKNKRYGGPSSGAPPPS [Agonist P132]”, the IC50 was 1.51 nM in experiment [1] (setting [6]), 617 nM in experiment [2] (setting [7]) and 1020 nM in experiment [3] (setting [8]).

Regarding “Hexanoyl-HSDAVFTDNYTRLRKQVAAKKTLQSIKNKRYGGPSSGAPPPS [Agonist P131]”, the values for the IC50 in experiment [1] (setting [6]), in experiment [2] (setting [7]) and in experiment [3] (setting [8]) were 5.67 nM, 1370 nM and 632 nM, respectively.

As to “Hexanoyl-HSDAVFTDNYTRLRKQVAAKKVLQSIKNKRYGGPSSGAPPPS [Agonist P134]”, the IC50 in experiment [1] (setting [6]) turned out to be 2.13 nM; in experiment [2] (setting [7]) it was 833 nM; in experiment [3] (setting [8]), 479 nM.

With “Hexanoyl-HSDAVFTLNYTRLRKQVAAKKYLQSIKNKRYGGPSSGAPPPS [Agonist P161]”, the IC50 was determined as 6.61 nM in experiment [1] (setting [6]), 119 nM in experiment [2] (setting [7]) and 4260 nM in experiment [3] (setting [8]).

Consider “Hexanoyl-HSDAVFTRNYTRLRKQVAAKKYLQSIKNKRYGGPSSGAPPPS [Agonist P162]”, for which the IC50 amounted to 3.72 nM in experiment [1] (setting [6]), 5.14 nM in experiment [2] (setting [7]) and 186 nM in experiment [3] (setting [8]).

Consider “IHSDAVFTDNYTRLRKQVAAKKYLQSIKNKRYGGPSSGAPPPS [Agonist P105]”, for which the IC50 in experiment [1] came out at 5.41 nM; in experiment [2] it was 263 nM; in experiment [3] it was 127 nM.

Take “[Met(O)]HSDAVFTDNYTRLRKQVAAKKYLQSIKNKRYGGPSSGAPPPS [Agonist P199]”: the values for the IC50 in experiment [1], in experiment [2] and in experiment [3] were 8.26 nM, 429 nM and 244 nM, respectively.

For the molecule “[dH]SDAVFTDNYTRLRKQVAAKKYLQSIKNKRYGGPSSGAPPPS [Agonist P84]”, the IC50 stood at 20 nM in experiment [1] (setting [6]) and 469 nM in experiment [2] (setting [7]).

As to HSDAVWTDNYTRLRKQVAAKKYLQSIKNKRYGGPSSGAPPPS [P67], in experiment [5], the “EC50 cAMP, Alpha Screen” value amounted to 94.1 nM.

As to HSDAVFTDNYTRLRKQVAAKKYLQSIKNKKGGPSSGAPPPS [P9], the “EC50 cAMP, DiscoveRx” value in experiment [5] stood at 2.41 nM.

In the case of Hexanoyl-H[Aib]DAVFTDNYTRLRKQVAAKKYLQSIKNKRYGGPSSGAPPPS (ends and bridges not checked) [P166], the “EC50 cAMP, Alpha Screen” value in experiment [5] was 0.15 nM.

Consider Hexanoyl-HSDAVFTDNYTRLRKQVAAKKYLQ[Aib]IKNKRYGGPSSGAPPPS (ends and bridges not checked) [P187], for which, in experiment [5], the “EC50 cAMP, Alpha Screen” value is 0.4 nM.

Take [dH]SDAVFTDNYTRLRKQVAAKKYLQSIKNKRYGGPSSGAPPPS [P84]: the “EC50 cAMP, Alpha Screen” value in experiment [5] is 185 nM.

On to Hexanoyl-HSDAVFTDNYTRLRKQVAAQKYLNQLKKGGPSSGAPPPS [P144], for which the “EC50 cAMP, Alpha Screen” value in experiment [5] is 0.32 nM.

As to HSDAVFTDNYTRLRKQVAAKKYLQSIKNKRGGT [P7], the “EC50 cAMP, DiscoveRx” value in experiment [5] was 2.78 nM.

HSDAVFTDNYTRLRKQVAAKKYLQSIKNKKGGT [P8]: in experiment [5], the “EC50 cAMP, DiscoveRx” value was 1.61 nM.

For Hexanoyl-HSDAVFTDNYTRLRKQVAAKKYLQSIKNKRGGPSSGAPPPS [P123], the “EC50 cAMP, Alpha Screen” value in experiment [5] amounted to 0.12 nM.

For the molecule Hexanoyl-HSDAVFTDNYTRLRKQVAAKKYLQSIKNSRGGPSSGAPPPS [P122], the “EC50 cAMP, Alpha Screen” value in experiment [5] was 0.14 nM.
